Laboratory results published in article PMC3718205 (Biochemical and biophysical research communications, 2012).
Where a SMILES comes first, the peptide text is derived from it. The star is where a group is joined. X1 = C/C(=C\C*)CC/C=C(\C)COCc1ccc(C(=O)c2ccccc2)cc1; X3 = C/C(=C\C*)CC/C=C(\C)COCc1cccc(C(=O)c2ccccc2)c1; Biotin = O=C1N[C@H]2[C@H](CS[C@H]2CCCCC(=O)*)N1; X2 = C/C(=C\C*)COCc1cccc(C(=O)c2ccccc2)c1; X4 = C/C(=C\C*)COCc1ccc(C(=O)c2ccccc2)cc1; PEG4 = NCCOCCOCCOCCOCCC(=O)O

How the values were obtained:
yeast Icmt = conditions: cited from earlier work
human Icmt (hIcmt) = conditions: cited from earlier work
[1] = target: T1, His10myc3N-Ste14p (His-Ste14p) (Saccharomyces cerevisiae, UniProt P32584); assay: In vitro methyltransferase vapor diffusion assay, substrate kinetics, His-Ste14p; assay type: biochemical, S. cerevisiae; conditions: for Vmax: crude yeast membranes expressing His-Ste14p; for Fold lower Km of para- vs meta-substituted benzophenone a-factor analogs: His-Ste14p, vs meta-substituted analogs (7a, 8a)
T1 sequence (P32584 1-239): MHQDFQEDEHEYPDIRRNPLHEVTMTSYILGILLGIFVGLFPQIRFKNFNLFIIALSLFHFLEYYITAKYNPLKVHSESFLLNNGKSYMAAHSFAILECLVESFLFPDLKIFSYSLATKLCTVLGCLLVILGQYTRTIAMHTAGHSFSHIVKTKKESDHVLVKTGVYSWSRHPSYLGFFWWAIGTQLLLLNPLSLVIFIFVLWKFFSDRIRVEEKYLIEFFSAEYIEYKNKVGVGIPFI

[2] = target: T1, His10myc3N-Ste14p (His-Ste14p); conditions: read-out: Km(app); AFC positive control; ± S.D.; cited from earlier work
[3] = target: T2, His10myc3N-hIcmt (His-hIcmt) (Homo sapiens, UniProt O60725); conditions: AFC; ± S.D.; cited from earlier work
T2 sequence (O60725 whole entry): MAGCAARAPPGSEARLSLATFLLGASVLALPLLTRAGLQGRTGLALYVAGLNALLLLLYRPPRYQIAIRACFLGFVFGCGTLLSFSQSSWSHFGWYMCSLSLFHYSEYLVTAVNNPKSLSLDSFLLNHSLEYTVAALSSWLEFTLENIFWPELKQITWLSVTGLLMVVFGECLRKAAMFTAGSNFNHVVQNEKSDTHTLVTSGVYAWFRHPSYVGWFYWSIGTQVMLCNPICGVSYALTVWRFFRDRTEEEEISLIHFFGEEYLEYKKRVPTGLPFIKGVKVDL

[4] = target: T2, His10myc3N-hIcmt (His-hIcmt); assay: Inhibition of His-hIcmt methyltransferase activity; assay type: biochemical
His-Icmt = assay: Competition of photolabeling by 8b with AFC, His-hIcmt; assay type: binding, human; conditions: 8b 200 μM, increasing AFC; data not shown

## CC(=O)N[C@@H](CSC/C=C(\C)CC/C=C(\C)CC/C=C(\C)CCC=C(C)C)C(=O)O [AGGC, N-acetyl-S-geranylgeranyl-L-cysteine]
Yeast Icmt
  Substrate of yeast Icmt (in words): substrates for both human and yeast Icmts
Human Icmt (hIcmt)
  Substrate of human Icmt (in words): substrates for both human and yeast Icmts

## CC(=O)N[C@@H](CSC/C=C(\C)CC/C=C(\C)CCC=C(C)C)C(=O)O [Compound 1, N-acetyl-S-farnesyl-L-cysteine]
[1]
  Vmax: 869 pmol/min/mg
[2]
  Km: 15.9 ± 0.9 µM
[3]
  Km: 10.3 ± 0.5 µM
Yeast Icmt
  Substrate of yeast Icmt (in words): substrates for both human and yeast Icmts
Human Icmt (hIcmt)
  Substrate of human Icmt (in words): substrates for both human and yeast Icmts

## CC[C@H](C)[C@H](NC(=O)[C@H](Cc1ccc(O)cc1)NC(=O)CCOCCOCCOCCOCCNC(=O)CCCC[C@@H]1SC[C@@H]2NC(=O)N[C@@H]21)C(=O)N[C@H](C(=O)N[C@@H](CCCCN)C(=O)NCC(=O)N[C@H](C(=O)N[C@@H](Cc1ccccc1)C(=O)N[C@@H](Cc1c[nH]c2ccccc12)C(=O)N[C@@H](CC(=O)O)C(=O)N1CCC[C@H]1C(=O)N[C@@H](C)C(=O)N[C@@H](CSC/C=C(\C)COCc1cccc(C(=O)c2ccccc2)c1)C(=O)O)C(C)C)[C@@H](C)CC [Compound 7a, Biotin-Peg4-YIIKGVFWDPAC(C5-meta-Bp)] ({Biotin-PEG4}-YIIKGVFWDPAC(X2)-OH)
[1]
  Vmax: 473 pmol/min/mg
[4]
  Inhibition of His-hIcmt (in words): poor inhibitors of His-hIcmt

## CC[C@H](C)[C@H](NC(=O)[C@H](Cc1ccc(O)cc1)NC(=O)CCOCCOCCOCCOCCNC(=O)CCCC[C@@H]1SC[C@@H]2NC(=O)N[C@@H]21)C(=O)N[C@H](C(=O)N[C@@H](CCCCN)C(=O)NCC(=O)N[C@H](C(=O)N[C@@H](Cc1ccccc1)C(=O)N[C@@H](Cc1c[nH]c2ccccc12)C(=O)N[C@@H](CC(=O)O)C(=O)N1CCC[C@H]1C(=O)N[C@@H](C)C(=O)N[C@@H](CSC/C=C(\C)COCc1ccc(C(=O)c2ccccc2)cc1)C(=O)O)C(C)C)[C@@H](C)CC [Compound 7b, Biotin-Peg4-YIIKGVFWDPAC(C5-para-Bp)] ({Biotin-PEG4}-YIIKGVFWDPAC(X4)-OH)
[1]
  Fold lower Km of para- vs meta-substituted benzophenone a-factor analogs: 2 – 3 times lower
[4]
  Inhibition of His-hIcmt (in words): poor inhibitors of His-hIcmt

## CC[C@H](C)[C@H](NC(=O)[C@H](Cc1ccc(O)cc1)NC(=O)CCOCCOCCOCCOCCNC(=O)CCCC[C@@H]1SC[C@@H]2NC(=O)N[C@@H]21)C(=O)N[C@H](C(=O)N[C@@H](CCCCN)C(=O)NCC(=O)N[C@H](C(=O)N[C@@H](Cc1ccccc1)C(=O)N[C@@H](Cc1c[nH]c2ccccc12)C(=O)N[C@@H](CC(=O)O)C(=O)N1CCC[C@H]1C(=O)N[C@@H](C)C(=O)N[C@@H](CSC/C=C(\C)CC/C=C(\C)COCc1cccc(C(=O)c2ccccc2)c1)C(=O)O)C(C)C)[C@@H](C)CC [Compound 8a, Biotin-Peg 4-YIIKGVFWDPAC(C10-meta-Bp)] ({Biotin-PEG4}-YIIKGVFWDPAC(X3)-OH)
[1]
  Vmax: 762 pmol/min/mg
[4]
  Inhibition of His-hIcmt (in words): relatively potent

## CC[C@H](C)[C@H](NC(=O)[C@H](Cc1ccc(O)cc1)NC(=O)CCOCCOCCOCCOCCNC(=O)CCCC[C@@H]1SC[C@@H]2NC(=O)N[C@@H]21)C(=O)N[C@H](C(=O)N[C@@H](CCCCN)C(=O)NCC(=O)N[C@H](C(=O)N[C@@H](Cc1ccccc1)C(=O)N[C@@H](Cc1c[nH]c2ccccc12)C(=O)N[C@@H](CC(=O)O)C(=O)N1CCC[C@H]1C(=O)N[C@@H](C)C(=O)N[C@@H](CSC/C=C(\C)CC/C=C(\C)COCc1ccc(C(=O)c2ccccc2)cc1)C(=O)O)C(C)C)[C@@H](C)CC [Compound 8b, Biotin-Peg4-YIIKGVFWDPAC(C10-para-Bp)] ({Biotin-PEG4}-YIIKGVFWDPAC(X1)-OH)
[1]
  Fold lower Km of para- vs meta-substituted benzophenone a-factor analogs: 2 – 3 times lower
[4]
  Inhibition of His-hIcmt (in words): relatively potent
His-Icmt
  Mode of inhibition (in words): competitive inhibitor
  Photolabeling by 8b in presence of AFC (in words): decreased with increasing AFC concentration

## CC(C)=CCCC(C)=CCCC(C)=CCSCCC(=O)O [FTP, farnesyl thiopropionic acid]
Yeast Icmt
  Substrate of yeast Icmt (in words): substrates for both human and yeast Icmts
Human Icmt (hIcmt)
  Substrate of human Icmt (in words): substrates for both human and yeast Icmts
